Experimental data as given in US11834672B2, “Method for producing hypophysis precursor tissue” (RIKEN, priority 2011, dated 2023).
Entries after “also recorded” stand apart in the source; their conditions may differ. Ends that are not written are not given here.

How the values were obtained:
[1] = tested on: ES cell-derived pituitary precursor tissue; assay: Differentiation of ES cell-derived pituitary precursor tissue into ACTH-producing cells, fluorescence antibody staining; format: cell-based, mouse; conditions: for expression of Pitx1: DAPT, BIO or IWP2 treatment, day 26 (FIG. 3k)
Protocol: Furthermore, using gfCDM medium, the aggregates were cultured under 40% O2 and 5% CO2 for 12 days in total (total 22 days). Moreover, the aggregates were treated with Notch signal inhibitor, 10 μM DAPT, for one day during days 18-19 or days 20-21 of culture.

[2] = tested on: ES cell-derived pituitary precursor tissue; assay: Differentiation of ES cell-derived pituitary precursor tissue into GH-, PRL-, LH-, FSH-, TSH-positive cells; format: cell-based, mouse
Protocol: Mouse ES cells were differentiated into pituitary precursor tissues by an SAG treatment (400 nM for 7 days and 100 nM for 3 days, total 10 days) using the method of Example 2. Furthermore, the aggregates were continuously floating-cultured under 40% O2 and 5% CO2. The medium used was gfCDM comprising corticosteroid (200 ng/ml hydrocortisone) and 1 nM insulin, gfCDM comprising estrogen (50 ng/ml estradiol) and 1 nM insulin, or culture supernatant (conditioned medium) of mouse feeder cell, PA6 cell, in gfCDM.
The expression of growth hormone (GH), prolactin (PRL), luteinizing hormone (LH), follicle-stimulating hormone (FSH), and thyroid-stimulating hormone (TSH) was confirmed by cytochemical staining of frozen section by the fluorescence antibody method.

[3] = tested on: ES cell-derived ACTH-producing cells; assay: In vitro ACTH secretion from ES cell-derived ACTH-producing cells by CRH, ELISA of culture supernatant; format: cell-based, mouse
[4] = tested on: mouse ES cell aggregates (10000 cells per aggregate); assay: Induction of pituitary precursor tissue (Lim3) in mouse ES cell aggregates by hedgehog signal treatment; format: cell-based
Protocol: Aggregates of mouse ES cells were formed from 10000 cells per aggregate by using the SFEBq/gfCDM method (Wataya et al, 2008, PNAS vol. 105, pp. 11796-11801), and subjected to the floating-culture as in Example 1. Immediately after the start of the differentiation culture, SAG (Danjo et al, JNS, 2011, vol. 31, pp. 1919-1933), a hedgehog agonist, was added at 100 or 400 nM, and the aggregates were cultured for a total of 10-13 days. […] The expression of Lim3, a marker of pituitary precursor tissue (Rathke's pouch), and the like was confirmed by PCR or cytochemical staining of frozen section by the fluorescence antibody method. The expression of Lim3 was also confirmed using Lim3::GFP knocked-in ES cells.

hedgehog signaling = conditions: cited from earlier work
[5] = tested on: ES cell-derived ACTH-producing cells; assay: In vitro ACTH secretion from ES cell-derived ACTH-producing cells by CRH, ELISA of culture supernatant; format: cell-based, mouse; conditions: 10 min, SAG- and DAPT-treated aggregates
Protocol: Mouse ES cells were differentiated into ACTH-producing cells by a SAG treatment and a DAPT treatment (total 22 days) using the method of Example 3. The aggregates were treated with CRH (corticotropin releasing factor) and ACTH secretion was quantified. To be specific, eight aggregates were placed in 500 μl of HBSS solution and, after pre-incubation at 37° C. for 10 min, CRH was added at a final concentration of 10-10000 ng/ml, and the aggregates were incubated for 10 min. Then, the culture supernatant was recovered and measured by ELISA method (FIG. 4a).

mouse ES cell aggregates = assay: SFEBq/gfCDM floating culture of mouse ES cell aggregates, non-neural head ectoderm marker Pitx2 by qPCR; format: cell-based; conditions: BMP4 0.5 nM added to the medium, SFEBq/CDM-cultured ESCs
human ES cells = assay: Floating aggregate culture of human ES cells with BMP4 and SAG, Pitx1 by qPCR and marker staining; format: cell-based; conditions: for E-cad positive non-neural ectoderm morphology: BMP-treated group, day 25 of culture
Protocol: Human ES cells (12000 cells) dispersed into single-cells with trypsin were subjected to floating aggregate culture in the presence of a […] ROCK inhibitor Y-27632 (Watanabe et al, Nature Neuroscience, 2007) in the same manner as in Example 1. The culture medium used was gfCDM added with 5% KSR. From day 3 of culture, 0.5 nM, 1.5 nM or 5.0 nM BMP4 was added to the culture medium, 1000 nM SAG was added from day 6 of culture, and the floating-culture was continued.

[6] = SAG 100 or 400 nM, PCR on day 10 and later

Molecule: Cc1ccc2nc(NC(=O)CSc3nc4c(c(=O)n3-c3ccccc3)SCC4)sc2c1 [IWP2]
- expression of Pitx1 [1]: tended to decrease

Molecule: C[C@]12CCC(=O)C=C1CC[C@@H]1[C@@H]2[C@@H](O)C[C@@]2(C)[C@H]1CC[C@]2(O)C(=O)CO [hydrocortisone]
- GH-positive cells in the aggregate ([2]; gfCDM with 200 ng/ml hydrocortisone and 1 nM insulin for 10 days from day 20): many GH-positive cells
- effect of pre-treatment on the ACTH secretion promoting effect of CRH ([3]; hydrocortisone 100 ng/ml pre-treatment for 60 min): suppressed almost completely; also recorded: suppressed the enhancement of ACTH secretion by CRH

Molecule: Cc1nn(-c2ccccc2)c(C)c1/C=N/N1CCN(Cc2ccccc2)CC1 [SANT-1]
- effect on SAG induction of Lim3 ([4]; hedgehog receptor antagonist added to SAG-treated aggregates): inhibited

Molecule: C[C@H](NC(=O)Cc1cc(F)cc(F)c1)C(=O)N[C@H](C(=O)OC(C)(C)C)c1ccccc1 [DAPT]
- expression of Tbx19 compared to without DAPT treatment ([1]; 10 μM DAPT for one day, days 18-19 or 20-21, SAG-treated aggregates): enhanced Tbx19 expression
- percentage of ACTH-positive cells ([1]; 10 μM DAPT for one day, day 22): increased percentage
- size of assemblies of Tbx19- and ACTH-highly positive cells ([1]; 10 μM DAPT treatment, assemblies in plural sites): > 30 cells
- expression of Pitx1 [1]: did not increase, or rather decreased

Molecule: CNC1CCC(N(Cc2cccc(-c3ccncc3)c2)C(=O)c2sc3ccccc3c2Cl)CC1 (stereo not drawn) [SAG]
- activity compared with Shh (hedgehog signaling): several-fold stronger activity than Shh
- gene expression of Lim3 relative to SAG non-addition group [4, 6]: 7 fold
- gene expression of Lim3 relative to undifferentiated ES cells [4, 6]: 15 fold
- number of Lim3-positive epithelial pouch vesicles formed in the aggregate ([4]; SAG-addition group, further 3 days in gfCDM, total 13 days): 1-7

Molecule: O=C1Nc2cc(Br)ccc2/C1=C1/Nc2ccccc2/C1=N\O [BIO, 6-bromoindirubin-3′-oxime]
- expression of Pitx1 [1]: greatly increased
- further increase of GH-positive cells ([2]; BIO 250 nM during days 16-18 of culture, then hydrocortisone and insulin): 30-50%

Molecule: CRH: corticotropin releasing factor, hypothalamic hormone promoting ACTH secretion (SEEPPISLDLTFHLLREVLEMARAEQLAQQAHSNRKLMEII; ends and bridges not checked; UniProt P06850 154-194, looked up)
- ACTH secretion ([3]; 1000 ng/ml CRH, aggregates without SAG treatment): did not show a significant increase
- ACTH secretion ([3]; CRH added, aggregates with SAG treatment but without DAPT treatment): did not show much increase
- induction of ACTH secretion by releasing hormones ([3]; SAG- and DAPT-treated aggregates (FIG. 4b)): CRH-specific; also recorded: enhancement of ACTH secretion
- ACTH concentration of the culture supernatant ([5]; 10 ng/ml CRH): 1.4 pg/mL
- ACTH concentration of the culture supernatant ([5]; 100 ng/ml CRH): 4 pg/mL
- ACTH concentration of the culture supernatant ([5]; 1000 ng/ml CRH): 8.5 to 9.5 pg/mL
- ACTH concentration of the culture supernatant ([5]; 10000 ng/ml CRH): 8.5 to 9.5 pg/mL

B1: BMP4: Bone Morphogenetic protein of the BMP2/4 group; exogenous BMP signal promoter (protein, UniProt P12644 293-408, looked up)
Bone morphogenetic protein 4: SPKHHSQRARKKNKNCRRHSLYVDFSDVGWNDWIVAPPGYQAFYCHGDCPFPLADHLNSTNHAIVQTLVNSVNSSIPKACCVPTELSAISMLYLDEYDKVVLKNYQEMVVEGCGCR
- expression of Pitx2 (mouse ES cell aggregates): increases; also recorded: elevation of Pitx2 expression
- expression of Pitx1 compared to the group without the treatment (human ES cells; 5 nM BMP4 from day 3, 12000 cells/aggregate, qPCR day 17): about 10 fold
- result when started from 3000 and 6000 human ES cells (human ES cells; BMP4 added to the medium): equivalent results were obtained
- E-cad positive non-neural ectoderm morphology (human ES cells): formation of E-cadherin^+ thickened non-neural ectoderm
- E-cad positive non-neural ectoderm morphology (human ES cells; listed as BMP): a part thereof was thickened to show a placode-like structure

B2: FGF8: FGF signal promoter (protein, UniProt P55075 23-233, looked up)
Fibroblast growth factor 8: QEGPGRGPALGRELASLFRAGREPQGVSQQHVREQSLVTDQLSRRLIRTYQLYSRTSGKHVQVLANKRINAMAEDGDPFAKLIVETDTFGSRVRVRGAETGLYICMNKKGKLIAKSNGKGKDCVFTEIVLENNYTALQNAKYEGWYMAFTRKGRPRKGSKTRQHQREVHFMKRLPRGHHTTEQSLRFEFLNYPPFTRSLRGSQRTWAPEPR
- increase of tissues expressing Lim3 ([4]; FGF8 200 ng/ml during day 10-13, gfCDM without SAG): 30-50%
